In one experiment the target is T1, KRAS G12C mutant (Homo sapiens, UniProt P01116, G12C).
T1 construct: 50 μM G12C K-Ras4B (1-169) protein and 1 mM BODIPY® FL GDP; His tag (N, cleaved yes); made in house; host or cells: E. coli BL21 (DE3)
Briefly: Inhibition of SOS1-mediated nucleotide (GDP-GTP) exchange reaction of KRAS G12C mutant, BODIPY FL GDP fluorescence. Conditions: preincubated 25° C. 4 hours with 25 nM KRAS G12C bound with BODIPY FL GDP; SOS1 100 nM, GppNHp 1 μM, 30 minutes. The format is biochemical. Put shortly:
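KRAS G12C (1-169) loaded with BODIPY FL GDP (25 nM) was preincubated with compound (5% DMSO) for 4 h at 25 °C. Exchange then ran 30 min with SOS1 (564-1049, 100 nM) and 1 µM GppNHp. IC50 came from the 485/520 nm fluorescence change, normalized to DMSO and no-GppNHp controls.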

In a further experiment the target is T2, G12C K-Ras4B (1-169) (Homo sapiens, UniProt P01116, G12C).
T2 construct: G12C K-Ras4B (1-169) protein, which was a KRAS G12C mutant; His tag (N, cleaved yes); made in house; host or cells: E. coli BL21 (DE3)
Briefly: Binding to KRAS G12C mutant, compound binding rate by LC-MS. The conditions noted are these: final compound concentration 2 μM, 1 μM protein, 2 hours at 25° C. Put shortly: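 Covalent labelling at 2 μM final compound on a mix of 1 μM each wild-type and G12C K-Ras4B (1-169) (E. coli-expressed, tag removed) in 1×TBS, 0.1 mM TCEP, 2 h at 25° C., quenched with formic acid. Intact-protein ESI Q-TOF LC-MS; binding rate from adduct vs unbound protein signal, graded A–E in 20% bands.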

The IC50 is the concentration at which inhibition is half-maximal. Read a high IC50 as a need for much substance. Regarding `C=CC(=O)N1CC(NC(=O)c2cnc(CNc3cc(CC)c(Cl)cc3O)n2C)C1` [Example 61, N-(1-Acryloylazetidin-3-yl)-2-(((4-chloro-5-ethyl-2-hydroxyphenyl)amino)methyl)-1-methyl-1H-imidazole-5-carboxamide], the IC50 on KRAS G12C mutant came to 144 nM. Moreover, the “binding rate for G12C K-Ras4B (1-169)” value on G12C K-Ras4B (1-169) was “B (60% or more and less than 80%)”.

In the case of `C=CC(=O)N1CC(NC(=O)c2cnc(CNc3cc([Si](C)(C)C)c(Cl)cc3O)n2C)C1` [Example 62, N-(1-Acryloylazetidin-3-yl)-2-(((4-chloro-2-hydroxy-5-(trimethylsilyl)phenyl)amino)methyl)-1-methyl-1H-imidazole-5-carboxamide], on KRAS G12C mutant, the IC50 was 11 nM. Besides, the “binding rate for G12C K-Ras4B (1-169)” value on G12C K-Ras4B (1-169) was “A (80% or more)”.

`C=CC(=O)N1CC(NC(=O)c2cnc(CNc3cc(C4(C)CC4(F)F)c(Cl)cc3O)n2C)C1` (centres unmarked) [Example 63, N-(1-Acryloylazetidin-3-yl)-2-(((4-chloro-5-(2,2-difluoro-1-methylcyclopropyl)-2-hydroxyphenyl)amino)methyl)-1-methyl-1H-imidazole-5-carboxamide] returned an IC50 against KRAS G12C mutant of 37 nM. Also, the “binding rate for G12C K-Ras4B (1-169)” value on G12C K-Ras4B (1-169) was “A (80% or more)”.

With `C=CC(=O)N1CC(NC(=O)c2cnc(CNc3cc(CCC)c(Cl)cc3O)n2C)C1` [Example 64, N-(1-Acryloylazetidin-3-yl)-2-(((4-chloro-2-hydroxy-5-propylphenyl)amino)methyl)-1-methyl-1H-imidazole-5-carboxamide], it took 366 nM to reach half-maximal inhibition against KRAS G12C mutant (IC50). The “binding rate for G12C K-Ras4B (1-169)” value on G12C K-Ras4B (1-169) was “D (20% or more and less than 40%)”.

`C=CC(=O)N1CC(NC(=O)c2ccc(CNc3cc(C(C)(C)C)c(Br)cc3O)o2)C1` [Example 65, N-(1-Acryloylazetidin-3-yl)-5-(((4-bromo-5-(tert-butyl)-2-hydroxyphenyl)amino)methyl)furan-2-carboxamide] gave an IC50 against KRAS G12C mutant of 353 nM. Further, the “binding rate for G12C K-Ras4B (1-169)” value at G12C K-Ras4B (1-169) is “A (80% or more)”.

At KRAS G12C mutant, `C=CC(=O)N1CC(NC(=O)c2ccc(CNc3cc(C(C)(C)C)ccc3O)o2)C1` [Example 66, N-(1-Acryloylazetidin-3-yl)-5-(((5-(tert-butyl)-2-hydroxyphenyl)amino)methyl)furan-2-carboxamide] registered an IC50 of 9800 nM. Besides, at G12C K-Ras4B (1-169), the “binding rate for G12C K-Ras4B (1-169)” value is on record as “E (less than 20%)”.

In turn, `C=CC(=O)N1CC(NC(=O)c2ccc(CNc3cc(C(C)(C)C)c(C#N)cc3O)o2)C1` [Example 67, N-(1-Acryloylazetidin-3-yl)-5-(((5-(tert-butyl)-4-cyano-2-hydroxyphenyl)amino)methyl)furan-2-carboxamide] displayed an IC50 against KRAS G12C mutant of 1030 nM. Also, at G12C K-Ras4B (1-169), the “binding rate for G12C K-Ras4B (1-169)” value was “C (40% or more and less than 60%)”.

For `C=CC(=O)N1CC(NC(=O)c2cnc(CNc3cc(C(C)(C)C)c(C)cc3O)n2C)C1` [Example 68, N-(1-Acryloylazetidin-3-yl)-2-(((5-(tert-butyl)-2-hydroxy-4-methylphenyl)amino)methyl)-1-methyl-1H-imidazole-5-carboxamide], the IC50 against KRAS G12C mutant came to 33 nM. Besides, the “binding rate for G12C K-Ras4B (1-169)” value on G12C K-Ras4B (1-169) is reported as “A (80% or more)”.

Take `C=CC(=O)N1CC(NC(=O)c2cnc(CNc3cc(C(C)(C)C)c(C=C)cc3O)n2C)C1` [Example 69, N-(1-Acryloylazetidin-3-yl)-2-(((5-(tert-butyl)-2-hydroxy-4-vinylphenyl)amino)methyl)-1-methyl-1H-imidazole-5-carboxamide]: it took 89 nM to reach half-maximal inhibition against KRAS G12C mutant (IC50). Moreover, the “binding rate for G12C K-Ras4B (1-169)” value on G12C K-Ras4B (1-169) is “B (60% or more and less than 80%)”.

For `C=CC(=O)N1CC(NC(=O)c2cnc(CNc3cc(C(C)(C)C)c(CC)cc3O)n2C)C1` [Example 70, N-(1-Acryloylazetidin-3-yl)-2-(((5-(tert-butyl)-4-ethyl-2-hydroxyphenyl)amino)methyl)-1-methyl-1H-imidazole-5-carboxamide], half-maximal inhibition against KRAS G12C mutant (IC50) required 84 nM. The “binding rate for G12C K-Ras4B (1-169)” value at G12C K-Ras4B (1-169) is “B (60% or more and less than 80%)”.

`C=CC(=O)N1CC(NC(=O)c2cnc(CNc3cc4c(cc3O)CCC4(C)C)n2C)C1` [Example 71, N-(1-Acryloylazetidin-3-yl)-2-(((6-hydroxy-3,3-dimethyl-2,3-dihydro-1H-inden-5-yl)amino)methyl)-1-methyl-1H-imidazole-5-carboxamide]: half-maximal inhibition against KRAS G12C mutant (IC50) was put at 221 nM. Besides, the “binding rate for G12C K-Ras4B (1-169)” value at G12C K-Ras4B (1-169) was “C (40% or more and less than 60%)”.

`C=CC(=O)N1CC(NC(=O)c2c(C)nc(CNc3cc4c(cc3O)CCC4(C)C)n2C)C1` [Example 72, N-(1-Acryloylazetidin-3-yl)-2-(((6-hydroxy-3,3-dimethyl-2,3-dihydro-1H-inden-5-yl)amino)methyl)-1,4-dimethyl-1H-imidazole-5-carboxamide]: the IC50 on KRAS G12C mutant was found to be 164 nM. On G12C K-Ras4B (1-169), the “binding rate for G12C K-Ras4B (1-169)” value is recorded as “A (80% or more)”.

Regarding `C=CC(=O)N1CC(NC(=O)c2cnc(CNc3cc(C(C)(C)C)c(Cl)c(F)c3O)n2C)C1` [Example 73, N-(1-Acryloylazetidin-3-yl)-2-(((5-(tert-butyl)-4-chloro-3-fluoro-2-hydroxyphenyl)amino)methyl)-1-methyl-1H-imidazole-5-carboxamide], at KRAS G12C mutant, the IC50 came out at 69 nM. Moreover, the “binding rate for G12C K-Ras4B (1-169)” value on G12C K-Ras4B (1-169) was “B (60% or more and less than 80%)”.

As for `C=CC(=O)N1CC(NC(=O)c2cnc(CNc3cc(C(C)(C)C)cc(C)c3O)n2C)C1` [Example 74, N-(1-Acryloylazetidin-3-yl)-2-(((5-(tert-butyl)-2-hydroxy-3-methylphenyl)amino)methyl)-1-methyl-1H-imidazole-5-carboxamide], half-maximal inhibition at KRAS G12C mutant (IC50) required 701 nM. Moreover, the “binding rate for G12C K-Ras4B (1-169)” value on G12C K-Ras4B (1-169) is listed as “E (less than 20%)”.

As to `C=CC(=O)N1CC(NC(=O)c2cnc(CNc3cc(S(F)(F)(F)(F)F)ccc3O)n2C)C1` [Example 75, N-(1-Acryloylazetidin-3-yl)-2-(((2-hydroxy-5-(pentafluoro-λ6-sulfaneyl)phenyl)amino)methyl)-1-methyl-1H-imidazole-5-carboxamide], the IC50 on KRAS G12C mutant is 661 nM. Besides, the “binding rate for G12C K-Ras4B (1-169)” value on G12C K-Ras4B (1-169) is recorded as “E (less than 20%)”.

In turn, `C=CC(=O)N1CC(NC(=O)c2c(C(F)(F)F)nc(CNc3cc(C(C)(C)C)c(C)cc3O)n2C(C)C)C1` [Example 77, N-(1-Acryloylazetidin-3-yl)-2-(((5-(tert-butyl)-2-hydroxy-4-methylphenyl)amino)methyl)-1-isopropyl-4-(trifluoromethyl)-1H-imidazole-5-carboxamide] showed an IC50 against KRAS G12C mutant of 240 nM. Besides, at G12C K-Ras4B (1-169), the “binding rate for G12C K-Ras4B (1-169)” value was “D (20% or more and less than 40%)”.

At KRAS G12C mutant, `C=CC(=O)N1CC(NC(=O)c2ccc(C(C)Nc3cc(C(C)(C)C)c(Cl)cc3O)o2)C1` (centres unmarked) [Example 79, N-(1-Acryloylazetidin-3-yl)-5-(1-((5-(tert-butyl)-4-chloro-2-hydroxyphenyl)amino)ethyl)furan-2-carboxamide] came in with an IC50 of 3900 nM. Also, on G12C K-Ras4B (1-169), the “binding rate for G12C K-Ras4B (1-169)” value was “D (20% or more and less than 40%)”.

Take `C=CC(=O)N1CC(NC(=O)c2cnc(C(C)Nc3cc(C(C)(C)C)c(Cl)cc3O)n2C)C1` (centres unmarked) [Example 80, N-(1-Acryloylazetidin-3-yl)-2-(1-((5-(tert-butyl)-4-chloro-2-hydroxyphenyl)amino)ethyl)-1-methyl-1H-imidazole-5-carboxamide]: on KRAS G12C mutant, the IC50 is 104 nM. In addition, the “binding rate for G12C K-Ras4B (1-169)” value on G12C K-Ras4B (1-169) was “B (60% or more and less than 80%)”.

At KRAS G12C mutant, `C=CC(=O)N1CC(NC(=O)c2c(C)nc(C(C)Nc3cc(C(C)(C)C)c(Cl)cc3O)n2C)C1` (centres unmarked) [Example 81, N-(1-Acryloylazetidin-3-yl)-2-(1-((5-(tert-butyl)-4-chloro-2-hydroxyphenyl)amino)ethyl)-1,4-dimethyl-1H-imidazole-5-carboxamide] displayed a 50% inhibitory concentration (IC50) of 225 nM. For the same compound, on G12C K-Ras4B (1-169), the “binding rate for G12C K-Ras4B (1-169)” value was “B (60% or more and less than 80%)”.

`C=CC(=O)N1CC(NC(=O)c2cnc(C(C)Nc3cc(C(C)(C)C)c(Cl)c(F)c3O)n2C)C1` (centres unmarked) [Example 82, N-(1-Acryloylazetidin-3-yl)-2-(1-((5-(tert-butyl)-4-chloro-3-fluoro-2-hydroxyphenyl)amino)ethyl)-1-methyl-1H-imidazole-5-carboxamide] registered an IC50 against KRAS G12C mutant of 1040 nM. In addition, on G12C K-Ras4B (1-169), the “binding rate for G12C K-Ras4B (1-169)” value is “B (60% or more and less than 80%)”.

With `C=CC(=O)N1CC(NC(=O)c2cnc(CNc3nc(C(C)(C)C)c(Cl)cc3O)n2C)C1` [Example 83, N-(1-Acryloylazetidin-3-yl)-2-(((6-(tert-butyl)-5-chloro-3-hydroxypyridin-2-yl)amino)methyl)-1-methyl-1H-imidazole-5-carboxamide], on KRAS G12C mutant, the IC50 was 23 nM. For the same compound, on G12C K-Ras4B (1-169), the “binding rate for G12C K-Ras4B (1-169)” value was “B (60% or more and less than 80%)”.

`C=CC(=O)N1CC(NC(=O)c2cnc(CNc3nc([Si](C)(C)C)c(Cl)cc3O)n2C)C1` [Example 84, N-(1-Acryloylazetidin-3-yl)-2-(((5-chloro-3-hydroxy-6-(trimethylsilyl)pyridin-2-yl)amino)methyl)-1-methyl-1H-imidazole-5-carboxamide] displayed an IC50 on KRAS G12C mutant of 63 nM. Moreover, the “binding rate for G12C K-Ras4B (1-169)” value on G12C K-Ras4B (1-169) was “A (80% or more)”.

(Values after US12479834B2, “Phenol compound or salt thereof” (TAIHO PHARMACEUTICAL CO., LTD., priority 2019, dated 2025).)
